{
  "source": "patent US6358885B1",
  "about": "“Substituted phenylheterocyclic herbicides” (Mississippi State University, priority 1992, dated 2002)",
  "key": {"blackgrass [1]": {"test_system": "blackgrass", "assay": "Test C preemergence/postemergence greenhouse plant response rating 0 to 100", "format": "in vivo, Alopecurus myosuroides", "conditions": "POSTEMERGENCE; for Plant response rating, Blackgrass: 0 to 100 scale", "method_in_brief": "(§1)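 Compounds in non-phytotoxic solvent applied preemergence to sandy loam one day after planting, postemergence at the 1–4 leaf stage, or to ~2.5 cm floodwater over silt loam.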"}, "barnyardgrass": {"test_system": "barnyardgrass", "assay": "Test C flood test plant response rating 0 to 100", "format": "in vivo, Echinochloa crus-galli", "conditions": "for Plant response rating Barnyardgrass 2: flood test species listed under POSTEMERGENCE, 0 to 100 scale", "method_in_brief": "as §1"}, "wheat": {"test_system": "wheat", "assay": "Test C preemergence/postemergence greenhouse plant response rating 0 to 100", "format": "in vivo, Triticum aestivum", "conditions": "POSTEMERGENCE; for Plant response rating, Wheat: 0 to 100 scale", "method_in_brief": "as §1"}, "morningglory": {"test_system": "morningglory", "assay": "Test B preemergence/postemergence greenhouse plant response rating 0 to 10", "format": "in vivo, Ipomoea hederacea", "conditions": "0 to 10 scale", "method_in_brief": "(§2)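 Planted seeds are treated preemergence with compound dissolved in a non-phytotoxic solvent, while postemergence applications go onto plants of two to eighteen cm. Plants stay in the greenhouse twelve to sixteen days and are then rated visually relative to controls.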"}, "cotton": {"test_system": "cotton", "assay": "Test C preemergence/postemergence greenhouse plant response rating 0 to 100", "format": "in vivo, Gossypium hirsutum", "conditions": "POSTEMERGENCE; for Plant response rating, Cotton: 0 to 100 scale", "method_in_brief": "as §1"}, "wild oat": {"test_system": "wild oat", "assay": "Test B preemergence/postemergence greenhouse plant response rating 0 to 10", "format": "in vivo, Avena fatua", "conditions": "0 to 10 scale", "method_in_brief": "as §2"}, "bedstraw": {"test_system": "bedstraw", "assay": "Test B preemergence/postemergence greenhouse plant response rating 0 to 10", "format": "in vivo, Galium aparine", "conditions": "0 to 10 scale", "method_in_brief": "as §2"}, "pigweed": {"test_system": "pigweed", "assay": "Test C preemergence/postemergence greenhouse plant response rating 0 to 100", "format": "in vivo, Amaranthusretroflexus", "conditions": "POSTEMERGENCE; for Plant response rating Pigweed: 0 to 100 scale", "method_in_brief": "as §1"}, "blackgrass [2]": {"test_system": "blackgrass", "assay": "Test B preemergence/postemergence greenhouse plant response rating 0 to 10", "format": "in vivo, Alopecurus myosuroides", "conditions": "0 to 10 scale", "method_in_brief": "as §2"}, "ryegrass": {"test_system": "ryegrass", "assay": "Test C preemergence/postemergence greenhouse plant response rating 0 to 100", "format": "in vivo, Lolium multiflorum", "conditions": "POSTEMERGENCE; for Plant response rating Ryegrass: 0 to 100 scale", "method_in_brief": "as §1"}, "cocklebur": {"test_system": "cocklebur", "assay": "Test B preemergence/postemergence greenhouse plant response rating 0 to 10", "format": "in vivo, Xanthium pensylvanicum", "conditions": "0 to 10 scale", "method_in_brief": "as §2"}, "sugar beet": {"test_system": "sugar beet", "assay": "Test B preemergence/postemergence greenhouse plant response rating 0 to 10", "format": "in vivo, Beta vulgaris", "conditions": "0 to 10 scale", "method_in_brief": "as §2"}},
  "data": [
    {"smiles": "CC(C)OC(=O)c1cc(-c2nn3c(c2Cl)CCCC3)c(F)cc1Cl", "note": "[Compound 44]", "values": [
      {"measurement": "Plant response rating, Blackgrass", "setting": "blackgrass [1]; 62 g/ha", "result": 60},
      {"measurement": "Plant response rating, Blackgrass", "setting": "blackgrass [1]; 250 g/ha", "result": 80},
      {"measurement": "Plant response rating (0 to 100), Blackgrass", "setting": "blackgrass [1]; Rate 4 g/ha", "result": 30},
      {"measurement": "Plant response rating (0 to 100), Blackgrass", "setting": "blackgrass [1]; Rate 16 g/ha", "result": 40},
      {"measurement": "Plant response rating (0 to 100), Barnyardgrass 2", "setting": "barnyardgrass; POSTEMERGENCE section, flood test, Rate 4 g/ha", "result": 65},
      {"measurement": "Plant response rating (0 to 100), Barnyardgrass 2", "setting": "barnyardgrass; Rate 16 g/ha, under POSTEMERGENCE head (flood test species)", "result": 100},
      {"measurement": "Plant response rating Barnyardgrass 2", "setting": "barnyardgrass; 62 g/ha", "result": 100},
      {"measurement": "Plant response rating Barnyardgrass 2", "setting": "barnyardgrass; 250 g/ha", "result": 100},
      {"measurement": "Plant response rating, Wheat", "setting": "wheat; 62 g/ha", "result": 50},
      {"measurement": "Plant response rating, Wheat", "setting": "wheat; 250 g/ha", "result": 80},
      {"measurement": "Plant response rating (0 to 100), Wheat", "setting": "wheat; Rate 4 g/ha", "result": 20},
      {"measurement": "Plant response rating (0 to 100), Wheat", "setting": "wheat; Rate 16 g/ha", "result": 30},
      {"measurement": "Plant response rating, Morningglory", "setting": "morningglory; POSTEMERGENCE, Rate 50 g/ha", "result": 9},
      {"measurement": "Plant response rating, Morningglory", "setting": "morningglory; PREEMERGENCE, Rate 50 g/ha", "result": 7},
      {"measurement": "Plant response rating, Morningglory", "setting": "morningglory; Rate 200 g/ha, POSTEMERGENCE", "result": 10},
      {"measurement": "Plant response rating, Morningglory", "setting": "morningglory; Rate 200 g/ha, PREEMERGENCE", "result": 10},
      {"measurement": "Plant response rating, Cotton", "setting": "cotton; 62 g/ha", "result": 100},
      {"measurement": "Plant response rating, Cotton", "setting": "cotton; 250 g/ha", "result": 100},
      {"measurement": "Plant response rating (0 to 100), Cotton", "setting": "cotton; Rate 4 g/ha", "result": 90},
      {"measurement": "Plant response rating (0 to 100), Cotton", "setting": "cotton; Rate 16 g/ha", "result": 100},
      {"measurement": "Plant response rating, Wild oat", "setting": "wild oat; POSTEMERGENCE, Rate 50 g/ha", "result": 5},
      {"measurement": "Plant response rating, Wild oat", "setting": "wild oat; PREEMERGENCE, Rate 50 g/ha", "result": 4},
      {"measurement": "Plant response rating, Wild oat", "setting": "wild oat; Rate 200 g/ha, POSTEMERGENCE", "result": 8},
      {"measurement": "Plant response rating, Bedstraw", "setting": "bedstraw; POSTEMERGENCE, Rate 50 g/ha", "result": 9},
      {"measurement": "Plant response rating, Bedstraw", "setting": "bedstraw; POSTEMERGENCE, Rate 200 g/ha", "result": 9},
      {"measurement": "Plant response rating, Bedstraw", "setting": "bedstraw; PREEMERGENCE, Rate 50 g/ha", "result": 8},
      {"measurement": "Plant response rating, Bedstraw", "setting": "bedstraw; Rate 200 g/ha, PREEMERGENCE", "result": 10},
      {"measurement": "Plant response rating Pigweed", "setting": "pigweed; 62 g/ha", "result": 100},
      {"measurement": "Plant response rating Pigweed", "setting": "pigweed; 250 g/ha", "result": 100},
      {"measurement": "Plant response rating (0 to 100), Pigweed", "setting": "pigweed; Rate 4 g/ha", "result": 90},
      {"measurement": "Plant response rating (0 to 100), Pigweed", "setting": "pigweed; Rate 16 g/ha", "result": 100},
      {"measurement": "Plant response rating, Blackgrass", "setting": "blackgrass [2]; POSTEMERGENCE, Rate 50 g/ha", "result": 8},
      {"measurement": "Plant response rating, Blackgrass", "setting": "blackgrass [2]; POSTEMERGENCE, Rate 200 g/ha", "result": 9},
      {"measurement": "Plant response rating, Blackgrass", "setting": "blackgrass [2]; PREEMERGENCE, Rate 50 g/ha", "result": 4},
      {"measurement": "Plant response rating, Blackgrass", "setting": "blackgrass [2]; Rate 200 g/ha, PREEMERGENCE", "result": 6},
      {"measurement": "Plant response rating Ryegrass", "setting": "ryegrass; 62 g/ha", "result": 50},
      {"measurement": "Plant response rating Ryegrass", "setting": "ryegrass; 250 g/ha", "result": 90},
      {"measurement": "Plant response rating (0 to 100), Ryegrass", "setting": "ryegrass; Rate 4 g/ha", "result": 20},
      {"measurement": "Plant response rating (0 to 100), Ryegrass", "setting": "ryegrass; Rate 16 g/ha", "result": 30},
      {"measurement": "Plant response rating, Cocklebur", "setting": "cocklebur; POSTEMERGENCE, Rate 50 g/ha", "result": 9},
      {"measurement": "Plant response rating, Cocklebur", "setting": "cocklebur; POSTEMERGENCE, Rate 200 g/ha", "result": 10},
      {"measurement": "Plant response rating, Cocklebur", "setting": "cocklebur; PREEMERGENCE, Rate 50 g/ha", "result": 6},
      {"measurement": "Plant response rating, Cocklebur", "setting": "cocklebur; Rate 200 g/ha, PREEMERGENCE", "result": 9},
      {"measurement": "Plant response rating, Sugar beet", "setting": "sugar beet; POSTEMERGENCE, Rate 50 g/ha", "result": 10},
      {"measurement": "Plant response rating, Sugar beet", "setting": "sugar beet; PREEMERGENCE, Rate 50 g/ha", "result": 10},
      {"measurement": "Plant response rating, Sugar beet", "setting": "sugar beet; Rate 200 g/ha, POSTEMERGENCE", "result": 10},
      {"measurement": "Plant response rating, Sugar beet", "setting": "sugar beet; Rate 200 g/ha, PREEMERGENCE", "result": 10}
    ]}
  ]
}
